Test results: patent US9770423B2, “Modulation sAPP, sAAPα and BDNF levels in individuals diagnosed with FXS and ASD” (Indiana University Research and Technology Corp., priority 2012, dated 2017)
“And” between values parts separate entries of the source, which are not always exact repeats. Identical values can stand only once.

Tests used:
[1] = system: youth with autistic disorder (idiopathic ASD); assay: 12-week single-blind placebo lead-in trial of acamprosate in youth with autistic disorder: behavioral outcome measures; assay type: in vivo, human
Method: One study was a 12-week single-blind, placebo-controlled trial of acamprosate in 12 youths with autistic disorder was conducted. The primary outcome measured was the Clinical Global Impression Improvement (CGI-I) scale with several additional behavioral secondary outcome measures employed. In this study, secreted amyloid precursor protein (sAPP) was measured pre- and post acamprosate treatment as blood biomarker assay Result: Twelve subjects (mean age=10.4 yrs.) entered the study and nine subjects completed a two week placebo lead-in and entered active treatment (mean final dose=1,073 mg/day). Six of nine (67%) subjects receiving acamprosate were judged treatment responders with a CGI-I score of 1 “very much improved” or 2 “much improved”. […] Among secondary outcome measures analyzed, significant acamprosate-associated improvement was noted on measures of social behavior and hyperactivity. Acamprosate use was also associated with reductions in sAPP levels.
The first project enrolled 12 youth aged 5 to 17 years with fragile X syndrome and comorbid ASD in a 10-week open-label trial of acamprosate. The second project enrolled 12 youth aged 5 to 17 years diagnosed with idiopathic ASD in a 12-week single-blind placebo lead-in study of acamprosate. In both projects, concomitant dosing of psychotropic drugs remained stable throughout study. In each project, pre- and post-acamprosate treatment plasma levels of sAPP total and sAPPα were obtained. All APP assay samples were collected, chilled, and walked within 2 hours of blood draw to the lab for analysis. Plasma sAPP total and sAPPα were determined in […] using the ELISA kit obtained from Immuno Biological Laboratories (IBL, Gumma, Japan). The ELISA kit is validated to measure levels of sAPPα in human samples and able to detect as low as 0.09 ng/ml of sAPPα in a typical sample, with only 0.3% cross-reactivity to sAPPβ. Levels of sAPP total and sAPPα in plasma were reported in nanograms per milliliter (ng/mL). Statistical analysis of pre- and post-acamprosate sAPP total and sAPPα levels were conducted using paired T-tests. Finally an exploratory post-hoc analysis of potential correlation between percent change in sAPP total or sAPPα and percent change in scores on the Aberrant Behavior Checklist Social Withdrawal/Lethargy subscale (ABC-SW) was conducted. The ABC-SW measures social impairment which is a core symptom domain of ASD. Post-hoc analysis was done with Spearman correlation calculations. All data was analyzed in IBM SPSS Version 20.
A 12-week single-blind, placebo-controlled trial of the effect of acamprosate in the treatment of 12 youths with autistic disorder aged 5 to 17 years was carried out. In order to pilot test use of acamprosate in youth with autism targeting core social impairment, was conducted. All subjects and their family members were blinded to treatment status. All subjects participated in a 2 week placebo-lead-in phase prior to 10 weeks of treatment with acamprosate. For this project, enteric coated commercially available 333 mg acamprosate pills were over-encapsulated and identical matching placebo manufactured for the project. Placebo-responders, defined by a Clinical Global Impressions Improvement scale (CGI-I) score of 1 “very much improved” or 2 “much improved” (ratings anchored to core social deficits) at week 2 were asked to exit the study. During active treatment with acamprosate, dosing was increased in 333 mg increments per week over the first six weeks of active treatment to a maximum dose of 1,332 mg/day (weight<5 60 kg) or 1,998 mg/day (weight>60 kg). During the final four weeks of active drug treatment, subjects were maintained on a stable highest tolerated (optimal) dose. The primary outcome measure was the clinician-rated CGI-I anchored to symptoms of social impairment. […]

[2] = system: leptin, beta endorphin, cortisol; details: humans with alcohol dependence; cited from earlier work
sAPPα = assay: plasma sAPPα by ELISA pre- and post-acamprosate; assay type: in vivo, human
Method: Test plasma samples are measured soon after collection. When necessary test samples of plasma were frozen but not subjected to repeated freeze/thaw cycles. The test samples were thawed just before use at a low temperature and mixed them completely. If necessary, the plasma samples can be diluted appropriately with the EIA buffer, and assay may be performed in duplicate measurements for the test samples and standards. Test samples in neutral pH range were used, and steps were taken to avoid the contamination with of organic solvents. Regarding the standard to quantify the sAPPα levels, a series of sAPPα standards in EIA buffer by serial dilutions, from 0.78 ng/mL to 50 ng/mL were prepared.
The ELISA plates were pre-coated with anti-human sAPPα(2B3) mouse IgG-monoclonal affinity purified (IBL). First, the wells for the reagent blank were determined, and 100 μL each of “EIA buffer” or 10 mM NaHCO3 (pH9.5) buffer was placed into each of the wells. Likewise, wells were assigned for test sample blanks, test samples and diluted standards. Next, 100 μL each of test sample blank, test sample and dilutions of standard was added to into the appropriate wells. The test sample included the plasma sample from each subject, which may vary from 5-25 μl, made up to 100 μL with the EIA buffer. The pre-coated plate was incubated overnight at 4° C. after covering it tightly with a plate lid. The plate was kept onto a rocker with gentle shaking Next day, each well of the pre-coated plate was vigorously washed with wash buffer containing 0.05% Tween 20 in phosphate buffer. This was done by filling each well with the wash buffer, leaving the pre-coated plate laid for 15-30 seconds and removing wash buffer completely from the plate by snapping. This procedure was repeated five times. After removing the remaining liquid from all wells completely by snapping the plate onto paper towel, 100 μL of labeled antibody solution was added into the wells of test samples, diluted standard and test sample blank. HRP-conjugated and labeled anti-Human APP (R101A4) mouse IgG from IBL was used. Each plate was incubated for 30 minutes at 4° C. after covering it with plate lid, and then washed the plate 5 times in the same manner as described before. To develop the color, 100 μL of the Chromogen (TMB solution) was added to into the wells, and the plate was incubated for 30 minutes at room temperature in the dark. When the liquid started turning blue (by addition of the Chromogen), 100 μL of the Stop solution (1N H2SO4) was added into the wells. The liquid was mixed by tapping the side of plate, and the liquid turned yellow by addition of the Stop solution. […] A plate reader was used and measurements were conducted measurement at 450 nm against a reagent blank. […]

NMDA glutamate receptor = details: animal studies; cited from earlier work
adult males with FXS = details: of 3 adult males with FXS, cited from earlier work
[3] = system: drinking-in-the-dark mouse model; details: cited from earlier work

CC(=O)NCCCS(=O)(=O)O.[Ca] [acamprosate, Calcium Acetylhomotaurine]
CGI-S at endpoint ([1]; autistic disorder, baseline 4.22+/-0.4, p=0.013): 3.7+/−0.5 | ABC Lethargy/Social Withdrawal subscale (ABC-SW) at endpoint ([1]; autistic disorder, baseline 14.1+/-8.5, p=0.019): 10.0+/−8.4 | ABC Hyperactivity subscale at endpoint ([1]; autistic disorder, baseline 25.4+/-12.6, p=0.005): 16.6+/−12.4 | ADHD-RS at endpoint ([1]; autistic disorder, baseline 29.5+/-10.4, p=0.002): 20.75+/−9.7 | SRS total raw score at endpoint ([1]; autistic disorder, baseline 107+/-28, p=0.002): 91.4+/−30 | mean CGI-I at last visit ([1]; nine subjects, last observation carried forward): 2 | treatment responders, number of subjects ([1]; of 9 youth with idiopathic ASD): 6 | treatment responders (CGI-I score of 1 or 2) ([1]; six of nine subjects receiving acamprosate, autistic disorder, mean final dose 1,073 mg/day): 67% | hormone levels [2]: lowers levels of several hormones: leptin, beta endorphin, cortisol | fractional change in sAPPα-CP (sAPPα; individual patients 1-6, baseline to Week 12): −0.7108 and −0.3184 and 0 and −0.02825 and −0.5967 and −0.4596 | sAPPα-CP, Week 12 (sAPPα; individual patients 1-6, titled as diagnosed with FXS, after treatment): 2.486 ng/mL and 5.056 ng/mL and 2.764 ng/mL and 4.778 ng/mL and 7.417 ng/mL and 2.694 ng/mL | mean sAPPα post-treatment (sAPPα; pooled 15 participants (9 FXS, 6 idiopathic ASD), pre-treatment 8.4±7.9 ng/mL, p=0.003): 5.5 ± 7.2 ng/mL | mean sAPPα levels at endpoint (sAPPα; six subjects of the 12-week trial, baseline 7.8 ng/mL, p=0.03): 4.2 ng/mL | action at the NMDA glutamate receptor (NMDA glutamate receptor): bind and act as an antagonist | subjects with non-treatment limiting gastrointestinal distress (emesis and/or nausea) (adult males with FXS): Two subjects | subjects with significant positive clinical response as measured by the CGI-I (adult males with FXS; mean dose 1,221 mg/day, mean duration 21.3 weeks): 3 | alcohol intake [3]: reduced alcohol intake
